Values quoted from earlier work, collected in patent publication US4305927A, “Method for the management of intraocular pressure” (ALZA Corporation, priority 1980, dated 1981).

Tested on: carbonic anhydrase

CC(=O)Nc1nnc(S(N)(=O)=O)s1 [acetazolamide, 5-acetamido-1,3,4-thiadiazole-2-sulfonamide]
action on carbonic anhydrase: enzyme inhibitor that acts on carbonic anhydrase
